The nature of data set [1]: in vitro. The settings on record: mouse, hepatocytes.
Description: Intrinsic clearance in mouse hepatocytes
Data set [2] is described as follows: physchem. Conditions: Fasted State Simulated Intestinal Fluid.
Description: Thermodynamic solubility of the compound in Fasted State Simulated Intestinal Fluid
Data set [3] in a line: in vitro. The settings on record: human, human liver microsomes.
Data set [4] in a line: in vitro. The settings on record: human, Caco-2.
Description: Apparent permeability of the compound across basolateral to apical side in human Caco-2 cells at 10 uM
Data set [5] can be described thus: in vivo. The settings on record: CD-1, mouse, po, 30 mg/kg.
Data set [6] can be described thus: in vivo. The settings on record: Sprague-Dawley, rat, po, 10 mg/kg.
Data set [7] addresses Serine/threonine-protein kinase mTOR (Homo sapiens, UniProt P42345).
Description: Inhibition of mTOR (unknown origin) by LANCE Ultra assay
Data set [8] is described as follows: physchem. The settings on record: octanol/phosphate buffer, pH 7.4.
Description: Lipophilicity, log D of the compound in octanol/phosphate buffer at pH 7.4 by shake flask method
In data set [9] the test system is LoVo. In words: animal or person. Conditions: Mus musculus, po, 480 h, read-out: TGI.
Data set [10] can be described thus: physchem. The settings on record: aqueous buffer, pH 7.4.
Description: Thermodynamic solubility of the compound in aqueous buffer at pH 7.4
Data set [11] is described as follows: in vivo. The settings on record: Sprague-Dawley, rat, plasma, iv, 1 mg/kg.
For data set [12], the target named is Phosphatidylinositol 4,5-bisphosphate 3-kinase catalytic subunit alpha isoform (Homo sapiens, UniProt P42336).
Sequence of Phosphatidylinositol 4,5-bisphosphate 3-kinase catalytic subunit alpha isoform (P42336 whole entry, canonical isoform): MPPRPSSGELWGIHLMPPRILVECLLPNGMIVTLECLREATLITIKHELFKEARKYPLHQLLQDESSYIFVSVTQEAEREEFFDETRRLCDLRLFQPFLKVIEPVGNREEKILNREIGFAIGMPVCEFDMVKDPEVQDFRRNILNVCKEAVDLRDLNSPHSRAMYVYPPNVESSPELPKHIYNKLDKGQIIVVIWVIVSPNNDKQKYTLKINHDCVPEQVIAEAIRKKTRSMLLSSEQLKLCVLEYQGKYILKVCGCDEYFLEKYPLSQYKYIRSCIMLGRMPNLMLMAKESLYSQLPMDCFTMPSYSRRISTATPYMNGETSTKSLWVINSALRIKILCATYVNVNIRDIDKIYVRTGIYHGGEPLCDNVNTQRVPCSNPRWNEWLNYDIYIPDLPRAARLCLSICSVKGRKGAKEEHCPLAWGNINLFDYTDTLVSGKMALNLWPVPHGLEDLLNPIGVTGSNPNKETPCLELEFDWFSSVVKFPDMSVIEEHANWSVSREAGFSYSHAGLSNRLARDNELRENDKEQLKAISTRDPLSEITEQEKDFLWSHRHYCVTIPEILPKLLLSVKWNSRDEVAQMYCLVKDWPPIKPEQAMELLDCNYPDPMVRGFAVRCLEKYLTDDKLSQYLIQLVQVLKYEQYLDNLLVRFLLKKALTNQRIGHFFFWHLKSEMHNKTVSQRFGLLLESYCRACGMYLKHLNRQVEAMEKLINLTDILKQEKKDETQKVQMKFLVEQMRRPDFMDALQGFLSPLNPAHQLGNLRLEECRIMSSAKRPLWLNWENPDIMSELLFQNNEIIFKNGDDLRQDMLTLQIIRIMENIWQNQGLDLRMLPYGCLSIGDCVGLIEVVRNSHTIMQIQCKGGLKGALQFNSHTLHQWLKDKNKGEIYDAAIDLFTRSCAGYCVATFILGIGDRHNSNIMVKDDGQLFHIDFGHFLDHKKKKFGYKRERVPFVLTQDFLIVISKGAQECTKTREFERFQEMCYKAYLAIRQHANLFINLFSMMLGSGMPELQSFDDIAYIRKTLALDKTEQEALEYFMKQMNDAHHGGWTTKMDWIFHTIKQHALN
Description: Inhibition of PI3Kalpha (unknown origin) by ADP-Glo assay
Data set [13] addresses Phosphatidylinositol 4,5-bisphosphate 3-kinase catalytic subunit beta isoform (Homo sapiens, UniProt P42338).
Description: Inhibition of PI3Kbeta (unknown origin) by ADP-Glo assay
Data set [14] can be described thus: in vivo. Conditions: cynomolgus monkey, po, 10 mg/kg.
Data set [15] in a line: in vivo. The settings on record: CD-1, mouse, plasma, iv, 1 mg/kg.
Data set [16] addresses T1, Cytochrome P450 2B6 (Homo sapiens, UniProt P20813).
T1 sequence (P20813 whole entry): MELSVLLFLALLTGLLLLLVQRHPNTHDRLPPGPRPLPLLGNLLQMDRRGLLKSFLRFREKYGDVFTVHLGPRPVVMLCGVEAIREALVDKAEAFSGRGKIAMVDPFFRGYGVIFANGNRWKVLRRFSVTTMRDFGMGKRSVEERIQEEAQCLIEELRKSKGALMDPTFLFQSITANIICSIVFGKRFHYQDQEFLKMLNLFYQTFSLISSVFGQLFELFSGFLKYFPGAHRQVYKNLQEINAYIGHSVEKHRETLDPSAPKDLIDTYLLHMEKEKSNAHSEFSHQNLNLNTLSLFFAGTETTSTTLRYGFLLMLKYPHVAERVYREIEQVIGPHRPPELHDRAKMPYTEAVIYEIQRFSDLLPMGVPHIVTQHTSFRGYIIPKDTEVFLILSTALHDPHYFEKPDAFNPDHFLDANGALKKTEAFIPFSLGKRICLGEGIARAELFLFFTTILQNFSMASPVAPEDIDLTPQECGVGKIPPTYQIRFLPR
Description: Inhibition of CYP2B6 in human liver microsomes by LC-MS/MS analysis

Data set [17] can be described thus: in vitro. Conditions: human, Caco-2. The source holds these as a separate data set.
Description: Apparent permeability of the compound across apical to basolateral side in human Caco-2 cells at 10 uM
Data set [18] can be described thus: in vivo. The settings on record: Sprague-Dawley, rat, po, 10 mg/kg. This is another data set of the same source.
Data set [19] in a line: in vivo. Conditions: CD-1, mouse, po, 10 mg/kg.
Data set [20] can be described thus: in vivo. Conditions: cynomolgus monkey, iv, 1 mg/kg.
Description: Half life in cynomolgus monkey at 1 mg/kg, iv
Data set [21] in a line: in vitro. Conditions: mouse, plasma.
Description: Protein binding in mouse plasma assessed as free fraction at 5 uM incubated for 5 hrs by equilibrium dialysis method
For data set [22], the target named is Cytochrome P450 2C9 (Homo sapiens, UniProt P11712).
Sequence of Cytochrome P450 2C9 (P11712 whole entry): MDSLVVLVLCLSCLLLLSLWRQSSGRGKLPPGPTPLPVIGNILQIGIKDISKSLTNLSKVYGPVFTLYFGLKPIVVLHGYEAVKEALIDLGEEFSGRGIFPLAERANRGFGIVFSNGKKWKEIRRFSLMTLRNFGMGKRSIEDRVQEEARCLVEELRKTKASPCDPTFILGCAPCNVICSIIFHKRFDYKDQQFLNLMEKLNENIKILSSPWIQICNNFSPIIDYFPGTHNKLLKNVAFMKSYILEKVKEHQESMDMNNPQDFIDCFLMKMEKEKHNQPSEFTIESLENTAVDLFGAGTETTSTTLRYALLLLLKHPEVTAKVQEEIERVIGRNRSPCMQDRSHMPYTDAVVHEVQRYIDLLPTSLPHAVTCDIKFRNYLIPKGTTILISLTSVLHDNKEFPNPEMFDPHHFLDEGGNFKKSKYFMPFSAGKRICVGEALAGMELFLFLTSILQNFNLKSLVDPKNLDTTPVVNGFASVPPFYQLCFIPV
A short description of data set [23]: in vivo. Conditions: CD-1, mouse, po, 30 mg/kg. This is another data set of the same source.

Converted amounts (≈) assume the structure as drawn.

Sequence of Phosphatidylinositol 4,5-bisphosphate 3-kinase catalytic subunit beta isoform (P42338 whole entry, canonical isoform): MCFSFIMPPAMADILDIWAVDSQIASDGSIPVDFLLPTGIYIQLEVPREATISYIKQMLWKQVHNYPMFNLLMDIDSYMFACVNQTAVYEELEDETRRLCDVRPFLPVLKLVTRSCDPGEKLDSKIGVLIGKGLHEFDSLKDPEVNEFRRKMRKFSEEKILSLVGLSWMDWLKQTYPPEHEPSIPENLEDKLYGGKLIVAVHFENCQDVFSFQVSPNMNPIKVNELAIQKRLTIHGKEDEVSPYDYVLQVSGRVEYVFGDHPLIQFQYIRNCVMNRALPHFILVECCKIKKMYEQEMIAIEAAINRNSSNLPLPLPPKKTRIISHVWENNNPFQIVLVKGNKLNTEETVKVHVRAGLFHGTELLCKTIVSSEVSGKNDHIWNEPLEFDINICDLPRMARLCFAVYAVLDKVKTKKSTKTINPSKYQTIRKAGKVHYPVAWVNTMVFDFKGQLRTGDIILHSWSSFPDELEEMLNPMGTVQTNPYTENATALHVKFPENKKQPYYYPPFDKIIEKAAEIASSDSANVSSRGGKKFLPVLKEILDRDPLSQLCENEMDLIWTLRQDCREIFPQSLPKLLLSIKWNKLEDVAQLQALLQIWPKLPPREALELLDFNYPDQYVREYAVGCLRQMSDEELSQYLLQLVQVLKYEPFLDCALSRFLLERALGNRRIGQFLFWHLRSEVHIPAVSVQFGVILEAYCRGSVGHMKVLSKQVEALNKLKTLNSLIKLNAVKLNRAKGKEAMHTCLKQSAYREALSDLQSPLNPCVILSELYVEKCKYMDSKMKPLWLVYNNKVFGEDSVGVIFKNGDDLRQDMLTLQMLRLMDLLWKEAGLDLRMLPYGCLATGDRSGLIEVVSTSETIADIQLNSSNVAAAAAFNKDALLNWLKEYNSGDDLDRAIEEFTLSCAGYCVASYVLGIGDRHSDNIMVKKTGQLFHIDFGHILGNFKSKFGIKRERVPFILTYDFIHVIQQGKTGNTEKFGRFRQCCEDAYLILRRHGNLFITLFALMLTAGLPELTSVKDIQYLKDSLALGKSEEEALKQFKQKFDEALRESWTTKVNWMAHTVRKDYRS

The term CLint scaled denotes the rate of metabolic loss divided by the concentration. The term solubility (thermodynamic) denotes solubility found after equilibrating the solid with the medium. One may read the Papp B→A as how fast a substance crosses the layer from the basolateral side. For orientation: AUC(0-t) means exposure summed from dosing to a finite time, without extrapolation to infinity. Low values mean low exposure, high ones high exposure. What is called Cmax is the highest concentration seen after dosing. In general, IC50 refers to the concentration at which inhibition is half-maximal. Higher therefore signals lower potency. A word on the logD: it is lipophilicity at a set pH, counting ionised and neutral species. A low value points to a more hydrophilic compound. As a reminder, the clearance is the rate of elimination divided by the concentration. Read a low clearance as a low capacity for elimination. The Tmax is the time at which the peak concentration occurs. Broadly, the Papp A→B is the apparent permeability from the apical to the basolateral side of a cell layer. The low end stands for poor permeation, the high end for ready permeation. As a reminder, the bioavailability is dose-corrected exposure relative to a reference, in per cent. The low end stands for poor availability, the high end for good availability. What is called half-life is the time in which the quantity being followed falls by half. As usually defined, the fraction unbound is the share of the substance not bound to proteins or other matrix. The low end stands for little free substance, the high end for much free substance. In turn, `C[C@@H]1COCCN1c1cc(N=[S@@](C)(=O)C2CC2)nc(-c2ccnc(N)c2)n1` came in with a CLint scaled in data set [1] of 22 mL/min/kg. In addition, the figures for the solubility (thermodynamic) in data set [2] and in data set [10] were 1600 µg/mL (≈ 4.12 mM) and 1500 µg/mL (≈ 3.86 mM), respectively. For the same compound, in data set [3], the CLint scaled at 0.75 h, 1 µM was found to be 2.3 mL/min/kg. Moreover, in data set [4], the basolateral-to-apical permeability (Papp B→A) at 10 µM was 34 ×10⁻⁶ cm/s. Besides, the AUC(0-t) in data set [5] amounted to 25.3 µM·h; in [19], 4.25 µM·h. Further, the Cmax in data set [6] came to 5.56 µM. Moreover, the half-maximal inhibitory concentration (IC50) was 968 nM in data set [7]; 29 µM in data set [12]; greater than 50 µM in [13]; greater than 10 µM in data set [16]; greater than 10 µM in [22]. In [8], the logD was 1.62. In data set [9], the inhibition in vivo at 30 mg/kg is 72%. For the same compound, the clearance in data set [11] worked out at 98 mL/min/kg; in data set [15] it was 69 mL/min/kg. Besides, the Tmax stood at 49.8 min in data set [14] and 15 min in data set [23]. The compound further returned a Papp A→B at 10 µM in data set [17] of 17 ×10⁻⁶ cm/s. The compound also had a bioavailability in [18] of 58%. Also, in data set [20], the half-life is 78 min. The compound also gave a fraction unbound at 5 h, 5 µM in [21] of 0.33.

The values above are taken from ChEMBL document CHEMBL6087433, “Discovery of ART0380, a Potent and Selective ATR Kinase Inhibitor Undergoing Phase 2 Clinical Studies for the Treatment of Advanced or Metastatic Solid Cancers” (J Med Chem, 2024).
